Laboratory results: patent publication US20250145585A1, “HETEROCYCLIC INHIBITORS OF IGF-1R FOR TREATMENT OF DISEASE” (HORIZON THERAPEUTICS IRELAND DAC, priority 2023, published 2025)

target: T1, IGF-1R (Homo sapiens, UniProt P08069); test: Example B-2: IGF-1R Assay (PathHunter cell lines, EC80 agonist challenge, chemiluminescent detection); type: cell-based; details: PathHunter cells, compound 60 minutes at 37° C., EC80 agonist 3 hours; read-out: IC50, Biological Activity against IGF-1R (Table B2)
T1 construct: expressed in transfected cells
Summary of the method: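 PathHunter cells were pre-incubated with compound for 60 min at 37° C (1% vehicle), then challenged with EC80 agonist for 3 h at room temperature. Chemiluminescent detection after 1 h gave % inhibition relative to EC80 and vehicle controls, from which IC50 was derived.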

T1 sequence (P08069 31-1367): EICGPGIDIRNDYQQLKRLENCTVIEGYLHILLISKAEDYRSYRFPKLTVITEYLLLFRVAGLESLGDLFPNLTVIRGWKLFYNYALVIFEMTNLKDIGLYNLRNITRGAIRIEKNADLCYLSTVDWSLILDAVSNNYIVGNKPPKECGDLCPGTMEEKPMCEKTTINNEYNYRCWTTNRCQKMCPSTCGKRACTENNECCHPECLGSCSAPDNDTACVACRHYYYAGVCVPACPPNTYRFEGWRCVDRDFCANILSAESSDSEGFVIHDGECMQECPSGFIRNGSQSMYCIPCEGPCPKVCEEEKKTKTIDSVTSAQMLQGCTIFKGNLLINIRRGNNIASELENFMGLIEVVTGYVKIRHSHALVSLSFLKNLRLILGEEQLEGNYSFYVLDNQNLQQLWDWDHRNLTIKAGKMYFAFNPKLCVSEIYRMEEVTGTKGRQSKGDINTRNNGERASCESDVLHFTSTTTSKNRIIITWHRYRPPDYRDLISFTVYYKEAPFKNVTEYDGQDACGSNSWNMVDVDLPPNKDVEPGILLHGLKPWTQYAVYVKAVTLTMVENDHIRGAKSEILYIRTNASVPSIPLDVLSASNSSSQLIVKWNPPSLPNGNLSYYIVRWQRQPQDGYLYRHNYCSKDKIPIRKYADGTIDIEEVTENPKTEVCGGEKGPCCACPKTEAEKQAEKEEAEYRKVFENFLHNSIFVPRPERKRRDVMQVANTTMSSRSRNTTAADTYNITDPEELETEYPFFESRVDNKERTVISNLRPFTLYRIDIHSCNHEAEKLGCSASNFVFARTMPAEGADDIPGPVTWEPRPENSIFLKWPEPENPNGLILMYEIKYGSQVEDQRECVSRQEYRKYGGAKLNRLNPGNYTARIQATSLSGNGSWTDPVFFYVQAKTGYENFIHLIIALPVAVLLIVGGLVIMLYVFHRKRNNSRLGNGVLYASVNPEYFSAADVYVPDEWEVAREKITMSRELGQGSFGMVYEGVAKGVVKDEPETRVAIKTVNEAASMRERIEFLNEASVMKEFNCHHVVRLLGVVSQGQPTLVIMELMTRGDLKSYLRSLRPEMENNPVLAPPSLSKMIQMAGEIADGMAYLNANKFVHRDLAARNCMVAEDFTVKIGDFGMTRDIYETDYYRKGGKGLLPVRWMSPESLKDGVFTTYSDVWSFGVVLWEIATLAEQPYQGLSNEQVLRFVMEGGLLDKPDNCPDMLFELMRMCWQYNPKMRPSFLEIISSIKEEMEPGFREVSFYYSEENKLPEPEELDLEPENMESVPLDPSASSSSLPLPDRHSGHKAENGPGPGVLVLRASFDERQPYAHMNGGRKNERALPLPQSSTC

IC50 | Structure (SMILES)
500 to 2000 nM | CC(C)Nc1cc(CN2C(=O)N(c3ccc(S(=O)(=O)C(C)(C)C)cc3)C(=O)C2(C)C)ccn1 [Compound 354, 3-(4-(tert-butylsulfonyl)phenyl)-1-((2-(isopropylamino)pyridin-4-yl)methyl)-5,5-dimethylimidazolidine-2,4-dione]
500 to 2000 nM | CC(C)(C#N)c1ccc(N2C(=O)N(Cc3ccnc(NCC(F)F)c3)C(C)(C)C2=O)cc1 [Compound 154, 2-(4-(3-((2-((2,2-difluoroethyl)amino)pyridin-4-yl)methyl)-4,4-dimethyl-2,5-dioxoimidazolidin-1-yl)phenyl)-2-methylpropanenitrile]
≤ 500 nM | CC1(C)C(=O)N(c2ccc(OC(F)(F)F)c(NC(=O)CN3CCOCC3)c2)C(=O)N1Cc1ccnc2c1CC(=O)N2 [Compound 75, N-(5-(4,4-dimethyl-2,5-dioxo-3-((2-oxo-2,3-dihydro-1H-pyrrolo[2,3-b]pyridin-4-yl)methyl)imidazolidin-1-yl)-2-(trifluoromethoxy)phenyl)-2-morpholinoacetamide]
500 to 2000 nM | CC1(C)C(=O)N(c2ccc(S(=O)(=O)C(F)(F)F)cc2)C(=O)N1Cc1ccnc(N[C@H]2CCOC[C@@H]2F)c1 [Compound 334, 1-((2-(((3R,4S)-3-fluorotetrahydro-2H-pyran-4-yl)amino)pyridin-4-yl)methyl)-5,5-dimethyl-3-(4-((trifluoromethyl)sulfonyl)phenyl) imidazolidine-2,4-dione]
> 10000 nM | CC(C)(C)Cn1ccc(N2C(=O)N(Cc3ccnc4c3CC(=O)N4)C(C)(C)C2=O)cc1=O [Compound 79, 5,5-dimethyl-3-(1-neopentyl-2-oxo-1,2-dihydropyridin-4-yl)-1-((2-oxo-2,3-dihydro-1H-pyrrolo[2,3-b]pyridin-4-yl)methyl)imidazolidine-2,4-dione]
500 to 2000 nM | C[C@@H](CC#N)Nc1cc(CN2C(=O)N(c3ccc(C(C)(C)C#N)cc3)C(=O)C2(C)C)ccn1 [Compound 151, (S)-3-((4-((3-(4-(2-cyanopropan-2-yl)phenyl)-5,5-dimethyl-2,4-dioxoimidazolidin-1-yl)methyl)pyridin-2-yl)amino)butanenitrile]
≤ 500 nM | COCCS(=O)(=O)N1CC(C)(C)c2ccc(N3C(=O)N(Cc4ccnc(NC5CCOCC5)c4)C(C)(C)C3=O)cc21 [Compound 228, 3-(1-((2-methoxyethyl)sulfonyl)-3,3-dimethylindolin-6-yl)-5,5-dimethyl-1-((2-((tetrahydro-2H-pyran-4-yl)amino)pyridin-4-yl)methyl)imidazolidine-2,4-dione]
≤ 500 nM | CC(C)Cc1cn(S(C)(=O)=O)c2cc(N3C(=O)N(Cc4ccnc5c4CC(=O)N5)C(C)(C)C3=O)ccc12 [Compound 50, 3-(3-isobutyl-1-(methylsulfonyl)-1H-indol-6-yl)-5,5-dimethyl-1-((2-oxo-2,3-dihydro-1H-pyrrolo[2,3-b]pyridin-4-yl)methyl)imidazolidine-2,4-dione]
≤ 500 nM | CO[C@H](C)CNc1cc(CN2C(=O)N(c3ccc4c(c3)N(S(C)(=O)=O)CC43CCC3)C(=O)C2(C)C)ccn1 [Compound 239, (R)-1-((2-((2-methoxypropyl)amino)pyridin-4-yl)methyl)-5,5-dimethyl-3-(1′-(methylsulfonyl)spiro[cyclobutane-1,3′-indolin]-6′-yl)imidazolidine-2,4-dione]
2000 to 10000 nM | CN1C[C@@H](Nc2cc(CN3C(=O)N(c4ccc(S(=O)(=O)C(F)(F)F)cc4)C(=O)C3(C)C)ccn2)CC1=O [Compound 323, (S)-5,5-dimethyl-1-((2-((1-methyl-5-oxopyrrolidin-3-yl)amino)pyridin-4-yl)methyl)-3-(4-((trifluoromethyl)sulfonyl)phenyl) imidazolidine-2,4-dione]
≤ 500 nM | Cn1ccc(CNc2cc(CN3C(=O)N(c4ccc5c(c4)N(S(C)(=O)=O)CC5(C)C)C(=O)C3(C)C)ccn2)n1 [Compound 246, 3-(3,3-dimethyl-1-(methylsulfonyl)indolin-6-yl)-5,5-dimethyl-1-((2-(((1-methyl-1H-pyrazol-3-yl)methyl)amino)pyridin-4-yl)methyl)imidazolidine-2,4-dione]
≤ 500 nM | CN1CC2(CCC2)c2ccc(N3C(=O)N(Cc4ccnc(NC5CCOCC5)c4)C(C)(C)C3=O)cc21 [Compound 214, 5,5-dimethyl-3-(1′-methylspiro[cyclobutane-1,3′-indolin]-6′-yl)-1-((2-((tetrahydro-2H-pyran-4-yl)amino)pyridin-4-yl)methyl)imidazolidine-2,4-dione]
500 to 2000 nM | CC1(C)C(=O)N(c2ccc(C3(C(F)(F)F)CC3)cc2)C(=O)N1Cc1ccnc(NS(C)(=O)=O)c1 [Compound 166, N-(4-((5,5-dimethyl-2,4-dioxo-3-(4-(1-(trifluoromethyl)cyclopropyl)phenyl)imidazolidin-1-yl)methyl)pyridin-2-yl)methanesulfonamide]
≤ 500 nM | CN1CC(C)(C)c2ccc(N3C(=O)N(Cc4ccnc(NC5CCOCC5)c4)C(C)(C)C3=O)cc21 [Compound 210, 5,5-dimethyl-1-((2-((tetrahydro-2H-pyran-4-yl)amino)pyridin-4-yl)methyl)-3-(1,3,3-trimethylindolin-6-yl)imidazolidine-2,4-dione]
500 to 2000 nM | C[C@H](Nc1cc(CN2C(=O)N(c3ccc(S(=O)(=O)C(F)(F)F)cc3)C(=O)C2(C)C)ccn1)[C@@H]1CCCO1 [Compound 339, 5,5-dimethyl-1-((2-(((S)-1-((S)-tetrahydrofuran-2-yl)ethyl)amino)pyridin-4-yl)methyl)-3-(4-((trifluoromethyl)sulfonyl)phenyl) imidazolidine-2,4-dione]
≤ 500 nM | CC1(C)C(=O)N(c2ccc(S(=O)(=O)C(F)(F)F)cc2)C(=O)N1Cc1ccnc(N[C@H]2C[C@H]2F)c1 [Compound 357, 1-((2-(((1S,2R)-2-fluorocyclopropyl)amino)pyridin-4-yl)methyl)-5,5-dimethyl-3-(4-((trifluoromethyl)sulfonyl)phenyl)imidazolidine-2,4-dione]
≤ 500 nM | CC1(C)COc2cc(N3C(=O)N(Cc4ccnc(N[C@H]5[C@@H]6COC[C@@H]65)c4)C(C)(C)C3=O)ccc21 [Compound 229, 1-((2-(((1R,5S,6r)-3-oxabicyclo[3.1.0]hexan-6-yl)amino)pyridin-4-yl)methyl)-3-(3,3-dimethyl-2,3-dihydrobenzofuran-6-yl)-5,5-dimethylimidazolidine-2,4-dione]
≤ 500 nM | CC1(C)C(=O)N(c2ccc3c(c2)N(S(C)(=O)=O)CC32CC2)C(=O)N1Cc1ccnc(NC2CCOCC2)c1 [Compound 212, 5,5-dimethyl-3-(1′-(methylsulfonyl)spiro[cyclopropane-1,3′-indolin]-6′-yl)-1-((2-((tetrahydro-2H-pyran-4-yl)amino)pyridin-4-yl)methyl)imidazolidine-2,4-dione]
≤ 500 nM | CN(C)CCOc1cc(N2C(=O)N(Cc3ccnc(N[C@H]4[C@@H]5COC[C@@H]54)c3)C(C)(C)C2=O)ccc1OC(F)(F)F [Compound 282, 1-((2-(((1R,5S,6r)-3-oxabicyclo[3.1.0]hexan-6-yl)amino)pyridin-4-yl)methyl)-3-(3-(2-(dimethylamino)ethoxy)-4-(trifluoromethoxy)phenyl)-5,5-dimethylimidazolidine-2,4-dione]
500 to 2000 nM | COC(C)(C)CNc1cc(CN2C(=O)N(c3ccc4c(c3)N(S(C)(=O)=O)CC43CCC3)C(=O)C2(C)C)ccn1 [Compound 235, 1-((2-((2-methoxy-2-methylpropyl)amino)pyridin-4-yl)methyl)-5,5-dimethyl-3-(1′-(methylsulfonyl)spiro[cyclobutane-1,3′-indolin]-6′-yl)imidazolidine-2,4-dione]
≤ 500 nM | C[C@@H](CC#N)Nc1cc(CN2C(=O)N(c3ccc4c(c3)N(S(C)(=O)=O)CC43CCC3)C(=O)C2(C)C)ccn1 [Compound 221, (S)-3-((4-((5,5-dimethyl-3-(1′-(methylsulfonyl)spiro[cyclobutane-1,3′-indolin]-6′-yl)-2,4-dioxoimidazolidin-1-yl)methyl)pyridin-2-yl)amino)butanenitrile]
> 10000 nM | CN1C(=O)Cc2c(CN3C(=O)N(c4ccc(C5(C#N)CCC5)cc4)C(=O)C3(C)C)ccnc21 [Compound 65, 1-(4-(4,4-dimethyl-3-((1-methyl-2-oxo-2,3-dihydro-1H-pyrrolo[2,3-b]pyridin-4-yl)methyl)-2,5-dioxoimidazolidin-1-yl)phenyl)cyclobutane-1-carbonitrile]
500 to 2000 nM | CC(C)Nc1cc(CN2C(=O)N(c3ccc(C4(C#N)CC4)cc3)C(=O)C2(C)C)ccn1 [Compound 144, 1-(4-(3-((2-(isopropylamino)pyridin-4-yl)methyl)-4,4-dimethyl-2,5-dioxoimidazolidin-1-yl)phenyl)cyclopropane-1-carbonitrile]
≤ 500 nM | CO[C@H](C)CNc1cc(CN2C(=O)N(c3ccc(S(=O)(=O)C(F)(F)F)cc3)C(=O)C2(C)C)ccn1 [Compound 338, (R)-1-((2-((2-methoxypropyl)amino)pyridin-4-yl)methyl)-5,5-dimethyl-3-(4-((trifluoromethyl)sulfonyl)phenyl) imidazolidine-2,4-dione]
500 to 2000 nM | CC1(C)C(=O)N(c2ccc(C3(C(F)(F)F)CC3)cc2)C(=O)N1Cc1ccnc(NC2CCN(S(C)(=O)=O)C2)c1 (centres unmarked) [Compound 146, 5,5-dimethyl-1-((2-((1-(methylsulfonyl)pyrrolidin-3-yl)amino)pyridin-4-yl)methyl)-3-(4-(1-(trifluoromethyl)cyclopropyl)phenyl) imidazolidine-2,4-dione]
≤ 500 nM | CC(C)(C#N)c1ccc(N2C(=O)N(Cc3ccnc(NC4CC4)c3)C(C)(C)C2=O)cc1 [Compound 149, 2-(4-(3-((2-(cyclopropylamino)pyridin-4-yl)methyl)-4,4-dimethyl-2,5-dioxoimidazolidin-1-yl)phenyl)-2-methylpropanenitrile]
